Test results taken from ChEMBL document CHEMBL1909046, “DrugMatrix in vitro pharmacology data”.

Legend:
[1] = DRUGMATRIX: GABAA, Muscimol, Central radioligand binding (ligand: [3H] Muscimol); assay type: cell membranes, Rattus norvegicus, Wistar, Brain, Membrane; settings: Not Active = under 50% inhibition at 10 µM
[2] = DRUGMATRIX: Potassium Channel [KATP] radioligand binding (ligand: [3H] Glyburide); assay type: cell membranes, Membrane; settings: hit-t15; Not Active = under 50% inhibition at 10 µM
Neutrophil elastase = biological target: T1, Neutrophil elastase (Homo sapiens, UniProt P08246); assay type: tissue-based;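 note: inhibition of neutrophil elastase enzyme activity, measured with a p-nitroanilide-linked peptide substrate; in other assays of this panel Not Active means under 50% inhibition at 10 µM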
T1 sequence (P08246 whole entry): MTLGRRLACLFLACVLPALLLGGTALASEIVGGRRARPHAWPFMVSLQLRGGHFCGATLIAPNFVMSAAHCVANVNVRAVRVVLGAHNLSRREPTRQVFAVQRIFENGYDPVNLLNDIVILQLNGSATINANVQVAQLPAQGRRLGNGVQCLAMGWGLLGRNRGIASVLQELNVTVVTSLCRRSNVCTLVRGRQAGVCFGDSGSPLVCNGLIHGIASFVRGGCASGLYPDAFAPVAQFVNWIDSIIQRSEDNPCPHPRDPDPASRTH

[3] = biological target: T2, C-X-C chemokine receptor type 1 (Homo sapiens, UniProt P25024); note: in other assays of this panel Not Active means under 50% inhibition at 10 µM
T2 sequence (P25024 whole entry): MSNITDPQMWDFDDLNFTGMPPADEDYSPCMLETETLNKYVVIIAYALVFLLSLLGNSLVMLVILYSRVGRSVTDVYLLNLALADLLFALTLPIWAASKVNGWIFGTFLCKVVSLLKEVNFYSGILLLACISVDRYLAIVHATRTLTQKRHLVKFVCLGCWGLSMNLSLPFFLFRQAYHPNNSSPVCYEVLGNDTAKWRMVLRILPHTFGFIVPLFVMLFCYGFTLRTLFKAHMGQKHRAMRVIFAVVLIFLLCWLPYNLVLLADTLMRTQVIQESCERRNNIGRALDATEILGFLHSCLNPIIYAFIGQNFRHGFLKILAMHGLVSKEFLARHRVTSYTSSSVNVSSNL

Thromboxane-A synthase = biological target: T3, Thromboxane-A synthase (Homo sapiens, UniProt P24557); experiment: biochemical; assay type: tissue-based, Platelet;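 note: enzyme inhibition assay with PGH2 supplied as substrate; in other assays of this panel Not Active means under 50% inhibition at 10 µM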
T3 sequence (P24557 whole entry): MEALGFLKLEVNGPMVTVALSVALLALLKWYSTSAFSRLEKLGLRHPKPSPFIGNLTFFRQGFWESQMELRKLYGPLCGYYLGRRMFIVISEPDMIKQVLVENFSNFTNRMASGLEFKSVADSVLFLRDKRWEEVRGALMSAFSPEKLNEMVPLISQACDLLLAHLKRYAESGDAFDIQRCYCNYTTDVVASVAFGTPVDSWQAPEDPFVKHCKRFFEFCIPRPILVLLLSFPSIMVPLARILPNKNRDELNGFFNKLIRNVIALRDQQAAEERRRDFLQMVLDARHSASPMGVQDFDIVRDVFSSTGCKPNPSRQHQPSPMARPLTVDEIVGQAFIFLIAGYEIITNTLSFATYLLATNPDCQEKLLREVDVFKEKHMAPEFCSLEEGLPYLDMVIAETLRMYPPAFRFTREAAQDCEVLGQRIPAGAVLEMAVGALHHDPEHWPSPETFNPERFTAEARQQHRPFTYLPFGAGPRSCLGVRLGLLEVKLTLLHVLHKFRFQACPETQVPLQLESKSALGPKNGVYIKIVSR

[4] = biological target: T4, Amine oxidase [flavin-containing] A (Homo sapiens, UniProt P21397); experiment: DRUGMATRIX: Monoamine Oxidase MAO-A enzyme inhibition (substrate: Kynuramine); design: species or system BTI-TN-5B1-4; settings: Not Active = under 50% inhibition at 10 µM
T4 sequence (P21397 whole entry): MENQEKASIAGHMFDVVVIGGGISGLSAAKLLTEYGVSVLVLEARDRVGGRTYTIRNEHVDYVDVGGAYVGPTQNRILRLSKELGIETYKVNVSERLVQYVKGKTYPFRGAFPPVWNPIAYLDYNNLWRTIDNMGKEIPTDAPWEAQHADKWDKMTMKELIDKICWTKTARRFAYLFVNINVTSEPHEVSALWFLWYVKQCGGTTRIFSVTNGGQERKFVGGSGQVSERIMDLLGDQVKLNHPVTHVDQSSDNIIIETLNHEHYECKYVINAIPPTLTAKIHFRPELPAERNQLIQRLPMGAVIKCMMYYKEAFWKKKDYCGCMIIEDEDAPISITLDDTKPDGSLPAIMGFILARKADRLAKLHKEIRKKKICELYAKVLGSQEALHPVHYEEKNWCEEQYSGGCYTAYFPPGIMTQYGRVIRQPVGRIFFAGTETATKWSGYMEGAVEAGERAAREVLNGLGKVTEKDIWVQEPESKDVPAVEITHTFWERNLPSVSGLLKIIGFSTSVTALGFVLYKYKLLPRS

[5] = biological target: Sodium-dependent noradrenaline transporter (Homo sapiens, UniProt P23975); experiment: DRUGMATRIX: Norepinephrine Transporter radioligand binding (ligand: [125I] RTI-55); assay type: cell membranes, MDCK, Membrane; settings: mdck; Not Active = under 50% inhibition at 10 µM
[6] = biological target: Tyrosine-protein kinase Lck (Homo sapiens, UniProt P06239); experiment: DRUGMATRIX: Protein Tyrosine Kinase, LCK enzyme inhibition (substrate: Poly(Glu:Tyr)); assay type: cell-based, Insect cells; settings: Not Active = under 50% inhibition at 10 µM
[7] = biological target: T5, Alpha-2C adrenergic receptor (Homo sapiens, UniProt P18825); experiment: DRUGMATRIX: Adrenergic Alpha-2C radioligand binding (ligand: [3H] MK-912); assay type: cell membranes, Sf9, Membrane
T5 sequence (P18825 whole entry): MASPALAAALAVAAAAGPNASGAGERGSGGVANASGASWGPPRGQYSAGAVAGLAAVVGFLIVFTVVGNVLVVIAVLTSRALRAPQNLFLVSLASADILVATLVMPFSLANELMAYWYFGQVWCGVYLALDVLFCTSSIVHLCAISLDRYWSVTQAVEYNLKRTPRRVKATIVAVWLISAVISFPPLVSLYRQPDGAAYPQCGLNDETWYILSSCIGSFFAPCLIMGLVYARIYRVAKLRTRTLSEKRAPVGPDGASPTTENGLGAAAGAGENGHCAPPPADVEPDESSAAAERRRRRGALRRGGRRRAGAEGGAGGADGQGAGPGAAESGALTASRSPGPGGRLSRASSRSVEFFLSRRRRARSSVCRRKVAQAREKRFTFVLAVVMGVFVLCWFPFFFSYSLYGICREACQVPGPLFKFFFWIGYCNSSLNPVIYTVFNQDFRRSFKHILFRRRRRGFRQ

Chain of Sodium-dependent noradrenaline transporter (P23975 whole entry): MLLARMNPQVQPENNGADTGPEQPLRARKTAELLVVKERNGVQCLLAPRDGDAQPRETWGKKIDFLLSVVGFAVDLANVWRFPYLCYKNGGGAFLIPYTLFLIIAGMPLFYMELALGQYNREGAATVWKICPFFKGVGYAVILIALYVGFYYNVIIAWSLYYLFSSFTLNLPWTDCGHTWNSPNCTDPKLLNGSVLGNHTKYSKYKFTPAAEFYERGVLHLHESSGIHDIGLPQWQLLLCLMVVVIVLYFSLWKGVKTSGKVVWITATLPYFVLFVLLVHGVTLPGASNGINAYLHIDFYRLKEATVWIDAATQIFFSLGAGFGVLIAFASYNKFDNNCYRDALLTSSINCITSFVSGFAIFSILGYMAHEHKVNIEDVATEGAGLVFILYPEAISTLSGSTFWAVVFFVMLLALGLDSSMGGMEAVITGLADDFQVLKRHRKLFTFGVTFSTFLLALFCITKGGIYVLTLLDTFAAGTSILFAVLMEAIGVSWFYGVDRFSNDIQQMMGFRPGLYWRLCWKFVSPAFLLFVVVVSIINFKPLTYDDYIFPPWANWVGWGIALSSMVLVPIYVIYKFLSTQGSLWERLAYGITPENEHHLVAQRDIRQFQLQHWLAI
Chain of Tyrosine-protein kinase Lck (P06239 whole entry): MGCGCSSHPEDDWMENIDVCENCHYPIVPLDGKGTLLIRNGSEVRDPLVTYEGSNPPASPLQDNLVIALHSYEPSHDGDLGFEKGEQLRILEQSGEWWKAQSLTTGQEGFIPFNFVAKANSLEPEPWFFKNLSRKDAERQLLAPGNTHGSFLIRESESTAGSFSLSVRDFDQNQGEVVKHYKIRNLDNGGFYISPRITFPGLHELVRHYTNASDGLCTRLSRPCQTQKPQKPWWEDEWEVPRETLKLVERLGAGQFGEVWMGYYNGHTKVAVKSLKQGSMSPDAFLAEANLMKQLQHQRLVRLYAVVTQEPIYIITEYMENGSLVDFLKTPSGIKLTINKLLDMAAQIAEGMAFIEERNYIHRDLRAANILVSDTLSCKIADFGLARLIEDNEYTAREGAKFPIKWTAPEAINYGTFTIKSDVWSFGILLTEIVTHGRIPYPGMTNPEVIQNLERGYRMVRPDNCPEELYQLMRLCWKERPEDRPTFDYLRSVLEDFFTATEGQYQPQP

CNC(=O)Oc1ccc2c(c1)[C@]1(C)CCN(C)[C@@H]1N2C [PHYSOSTIGMINE]
Not Active: IC50 [1] | Ki [1] | IC50 [2] | Ki [2] | IC50 (Neutrophil elastase) | IC50 [3] | IC50 (Thromboxane-A synthase; platelet) | IC50 ([4]; bti-tn-5b1-4) | IC50 [5] | IC50 ([6]; insect cells) | IC50 ([7]; sf9)

CCCC[C@@H](CC)COC(=O)c1ccccc1C(=O)OC[C@@H](CC)CCCC [BIS(2-ETHYLHEXYL)PHTHALATE]
Not Active: IC50 [1] | Ki [1] | IC50 [2] | Ki [2] | IC50 (Neutrophil elastase) | IC50 [3] | IC50 (Thromboxane-A synthase; platelet) | IC50 ([4]; bti-tn-5b1-4) | IC50 [5] | IC50 ([6]; insect cells) | IC50 ([7]; sf9)

CC[N+](CC)(CC)CCOc1cccc(OCC[N+](CC)(CC)CC)c1OCC[N+](CC)(CC)CC.[I-].[I-].[I-] [GALLAMINE TRIETHIODIDE]
Not Active: IC50 [1] | Ki [1] | IC50 [2] | Ki [2] | IC50 (Neutrophil elastase) | IC50 [3] | IC50 (Thromboxane-A synthase; platelet) | IC50 ([4]; bti-tn-5b1-4) | IC50 [5] | IC50 ([6]; insect cells) | IC50 ([7]; sf9)

CN(C)[C@@H]1C(O)=C(C(N)=O)C(=O)[C@@]2(O)C(O)=C3C(=O)c4c(O)cccc4[C@@](C)(O)[C@H]3[C@H](O)[C@@H]12 [OXYTETRACYCLINE]
Not Active: IC50 [1] | Ki [1] | IC50 [2] | Ki [2] | IC50 (Neutrophil elastase) | IC50 [3] | IC50 (Thromboxane-A synthase; platelet) | IC50 ([4]; bti-tn-5b1-4) | IC50 [5] | IC50 ([6]; insect cells) | IC50 ([7]; sf9)

NS(=O)(=O)c1cc2c(cc1Cl)NCNS2(=O)=O [HYDROCHLOROTHIAZIDE]
Not Active: IC50 [1] | Ki [1] | IC50 [2] | Ki [2] | IC50 (Neutrophil elastase) | IC50 [3] | IC50 (Thromboxane-A synthase; platelet) | IC50 ([4]; bti-tn-5b1-4) | IC50 [5] | IC50 ([6]; insect cells) | IC50 ([7]; sf9)

GOLD SODIUM THIOMALATE
Not Active: IC50 [1] | Ki [1] | IC50 [2] | Ki [2] | IC50 (Neutrophil elastase) | Ki (Neutrophil elastase) | IC50 [3] | Ki [3] | IC50 (Thromboxane-A synthase; platelet) | Ki (Thromboxane-A synthase; platelet) | IC50 ([4]; bti-tn-5b1-4) | Ki ([4]; bti-tn-5b1-4) | IC50 [5] | Ki [5] | IC50 ([6]; insect cells) | Ki ([6]; insect cells) | IC50 ([7]; sf9) | Ki ([7]; sf9)

CISPLATIN
9.35 µM: IC50 (Thromboxane-A synthase; platelet, read-out: IC50)
Not Active: IC50 [1] | Ki [1] | IC50 [2] | Ki [2] | IC50 (Neutrophil elastase) | Ki (Neutrophil elastase) | IC50 [3] | Ki [3] | IC50 ([4]; bti-tn-5b1-4) | Ki ([4]; bti-tn-5b1-4) | IC50 [5] | Ki [5] | IC50 ([7]; sf9) | Ki ([7]; sf9)
22.9 µM: IC50 ([6]; insect cells, read-out: IC50)

COC(=O)[C@H](c1ccccc1Cl)N1CCc2sccc2C1 [CLOPIDOGREL]
Not Active: IC50 [1] | Ki [1] | IC50 [2] | Ki [2] | IC50 (Neutrophil elastase) | IC50 [3] | IC50 (Thromboxane-A synthase; platelet) | IC50 ([4]; bti-tn-5b1-4) | IC50 [5] | IC50 ([6]; insect cells) | IC50 ([7]; sf9)

CN1C[C@H](C(=O)N[C@]2(C)O[C@@]3(O)[C@@H]4CCCN4C(=O)[C@H](Cc4ccccc4)N3C2=O)C=C2c3cccc4[nH]cc(c34)C[C@H]21 [ERGOTAMINE]
0.012 µM: IC50 ([7]; read-out: IC50)
Not Active: IC50 [1] | Ki [1] | IC50 [2] | Ki [2] | IC50 (Neutrophil elastase) | IC50 [3] | IC50 ([4]; bti-tn-5b1-4) | IC50 [5]
6.5 µM: IC50 ([6]; read-out: IC50)
3.06 µM: IC50 (Thromboxane-A synthase; read-out: IC50)
0.00181 µM: Ki ([7]; read-out: Ki)

c1ccc2c(c1)cc1ccc3cccc4ccc2c1c34
5.97 µM: IC50 ([4]; read-out: IC50)
Not Active: IC50 [1] | Ki [1] | IC50 [2] | Ki [2] | IC50 (Neutrophil elastase) | IC50 [3] | IC50 (Thromboxane-A synthase; platelet) | IC50 [5] | IC50 ([6]; insect cells) | IC50 ([7]; sf9)

CCOC(=O)c1ccc(N)cc1 [BENZOCAINE]
Not Active: IC50 [1] | Ki [1] | IC50 [2] | Ki [2] | IC50 (Neutrophil elastase) | IC50 [3] | IC50 (Thromboxane-A synthase; platelet) | IC50 ([4]; bti-tn-5b1-4) | IC50 [5] | IC50 ([6]; insect cells) | IC50 ([7]; sf9)

Oc1cccc2cccnc12 [OXYQUINOLINE]
Not Active: IC50 [1] | Ki [1] | IC50 [2] | Ki [2] | IC50 (Neutrophil elastase) | IC50 [3] | IC50 (Thromboxane-A synthase; platelet) | IC50 ([4]; bti-tn-5b1-4) | IC50 [5] | IC50 ([6]; insect cells) | IC50 ([7]; sf9)
